Results from patent US9782427B2, “Methods for treating cancer using TOR kinase inhibitor combination therapy” (Signal Pharmaceuticals, LLC, priority 2013, dated 2017).
Values belong to the compound of their own block, whether it stands above or below them.

How the values were obtained:
Ovcar-4 = experiment: Cell viability (CellTiter-Glo) and combination index, ovarian cell line; type: cell-based; conditions: combination with VIDAZA, 3 days, CalcuSyn, Chou-Talalay
Protocol: (§1) Cell viability was assessed using the Cell Titer-Glo® Luminescent Cell Viability Assay, Catalog Number G7570 (Promega Corporation, Madison, Wis.). The assay is a homogenous method of determining the number of viable cells in culture based on quantitation of the adenosine triphosphate (ATP) present, an indicator of metabolically active cells. The homogenous assay procedure involves adding the single reagent (CellTiter-Glo Reagent) directly to cells cultured in serum-supplemented medium. Cells were plated into a 96-well flat bottom plate (Costar Catalog Number 33595) at densities that were previously optimized for each cell line. The cells were incubated overnight in 5% CO2 at 37° C. The following day, compound dilutions were prepared and all concentrations were assayed in triplicate. The cells were incubated with a TOR kinase inhibitor or a TOR kinase inhibitor and a second active agent, in 5% CO2 at 37° C. for 3 days. After a 3-day incubation period, 100 μL, of CellTiter-Glo reagent was added to each well for 2 min with shaking and further incubated for 10 min (no shaking) at room temperature to stabilize the signal. The luminescence was measured on the VICTOR X2 multilabel plate reader. The percent growth inhibition was calculated using the DMSO control in the same plate (no compound) response as 100% cell growth. For single compound treatments (TORKi and second active agents separately), the average values from triplicates were plotted to obtain IC50 values using software XLfit from IDBS. The formula used for determining IC50 in XLfit was model number 205, which utilizes a 4 Parameter Logistic Model or Sigmoidal Dose-Response Model to calculate the IC50 values.
(§2) The cell viability assay was first performed with the TOR kinase inhibitor and the individual second active agents, to determine the dose range for subsequent combination studies. […] The TOR kinase inhibitor and the second active agent were each added to one well containing a final concentration of 0.2% DMSO (in triplicate). In the same plate in triplicate, the cells were treated with the TOR kinase inhibitor and each second active agent either simultaneously or sequentially (containing 0.2% DMSO). The number of cells affected by compound treatment was normalized to the DMSO control (100% viability) and the data was imported into the CalcuSyn software (V2.1, Biosoft). Synergism was quantitated by the combination index (CI) using CalcuSyn according to Chou-Talalay's CI method with mathematical modeling and simulations. […] ED50 is the median effect dose at which a 50% growth inhibition is achieved.

Ovcar-5 = experiment: as above; type: cell-based; conditions: combination with VIDAZA, 3 days, CalcuSyn, Chou-Talalay
Protocol: as §1, §2

Caov-3 = experiment: as above; type: cell-based; conditions: combination with VIDAZA, 3 days, CalcuSyn, Chou-Talalay
Protocol: as §1, §2

Ovcar-8 = experiment: as above; type: cell-based; conditions: combination with VIDAZA, 3 days, CalcuSyn, Chou-Talalay
Protocol: as §1, §2

Ovcar-3 = experiment: as above; type: cell-based; conditions: combination with VIDAZA, 3 days, CalcuSyn, Chou-Talalay
Protocol: as §1, §2

SK-Hep-1 cells = experiment: Anchorage independent growth (colony formation) assay; type: cell-based, Human; conditions: single agent
Protocol: (§3) The effect of Compound 1 on anchorage-independent growth (AIG) was assessed by colony formation assay in 2 Human Hepatocellular Carcinoma (“HHC”) cell lines, HepG2 and SK-Hep-1.
(§4) Cell Lines/Cells. Human cell lines HepG2 and SK-Hep-1 cells were obtained from American Type Culture Collection (ATCC; Manassas, Va.). Cells were cultured in DMEM (Dulbecco's Modified Eagle's Medium) (Mediatech; Mannasas, Va.) with 10% Premium FBS (Lonza, Walkersville, Md.).
(§5) (1) Single Agent Colony Formation Assay. Nobel Agar (1.2 grams; BD; Franklin Lakes, N.J.) was placed in a 100-mL sterile bottle. Sterile water (100 mL) was added and microwaved until the agar boiled. Equal volumes of agar and 2×RPMI medium (ECE Scientific; Doylestown, Pa.) were mixed and 300 μL were transferred to each well in a 24-well flat bottom plate (BD; Franklin Lakes, N.J.). Plates were kept at 4° C. until the agar solidified. Cultures of HepG2 and SK-Hep-1 cells were harvested and resuspended in culture medium at 3.6×10^3 cells/mL. Equal volumes of agar, 2×RPMI, and cell suspension (1:1:1) were mixed in a sterile tube and 500 μL/well were immediately transferred into the 24-well plates. Plates were kept at 4° C. until the agar solidified. Culture medium (500 μL) containing compound or DMSO was added to each well (final DMSO concentration for each treatment was 0.2%). Compound 1 was tested at final concentrations of 0.1, 0.3, 1, 3, 10 and 30 μM. 5-AZA was tested at final concentrations of 1, 3 and 10 μM. Cell treatments were set up in triplicate. Cells were incubated for 8-10 days at 37° C. in a 5% CO2 atmosphere. Photographs (2× magnification) of each well were taken using a Nikon DXM1200 Digital Camera and Nikon ACT1 software and saved as a TIFF file. ImageQuant TL (GE Healthcare; Piscataway, N.J.) Colony Count Software was used to count colonies. (2) Combination Study Colony Formation Assay. Nobel Agar (1.2 grams; BD; Franklin Lakes, N.J.) was placed in a 100-mL sterile bottle. Sterile water (100 mL) was added and microwaved until the agar boiled. Equal volumes of agar and 2×RPMI medium (ECE Scientific; Doylestown, Pa.) were mixed and 300 μL were transferred to each well in a 24-well flat bottom plate (BD; Franklin Lakes, N.J.). Plates were kept at 4° C. until the agar solidified. Cultures of HepG2 and SK-Hep-1 cells were harvested and resuspended in culture medium at 3.6×10^3 cells/mL. Equal volumes of agar, 2×RPMI, and cell suspension (1:1:1) were mixed in a sterile tube and 500 μL/well were immediately transferred into the 24-well plates. Plates were kept at 4° C. until the agar solidified. Culture medium (500 μL) containing compound or DMSO was added to each well (final DMSO concentration for each treatment was 0.2%). Cells were treated with single treatment as follows: Compound 1 was tested at final concentrations of 0.1 and 0.3 μM. 5-AZA was tested at 3 μM. Combinations of Compound 1 at 0.1 and 0.3 μM were tested with 3 μM 5-AZA. Cell treatments were set up in triplicate. Cells were incubated for 8-10 days at 37° C. in a 5% CO2 atmosphere. Photographs (2× magnification) of each well were taken using a Nikon DXM1200 Digital Camera and Nikon ACT1 software and saved as a TIFF file. ImageQuant TL (GE Healthcare; Piscataway, N.J.) Colony Count Software was used to count colonies.
(§6) Significance versus the DMSO control was calculated using One Way ANOVA and Dunnett's Post test or unpaired t tests using GraphPad Prism v5.01. To evaluate the combinatory effect, data from the three independent experiments were analyzed by comparing the combinatory response against the theoretical additive response of the two agents.

HepG2 cells = experiment: as above; type: cell-based, Human; conditions: single agent; for colony formation: 8 days
Protocol: as §3, §4, §5, §6

[1] = system: seventeen breast cancer cell line panel; experiment: Anti-proliferation assay (ATPLite), breast cancer cell line panel; type: cell-based; conditions: cell lines where inhibition levels greater than fifty percent were reached; 72 h; read-out: median GI50
Protocol: Cells were thawed from a liquid nitrogen preserved state. Once cells expanded and divided at their expected doubling times, screening began.
Cells were equilibrated in assay plates via centrifugation and placed in incubators attached to the Dosing Modules at 37° C. for twenty-four hours before treatment. […] These T zero (T0) plates were read using ultra-sensitive luminescence on Envision Plate Readers. Treated assay plates were incubated with compound (single compound or combination) for seventy-two hours. After seventy-two hours, plates were developed for endpoint analysis using ATPLite. All data points were collected via automated processes; quality controlled; and analyzed. Assay plates were accepted if they passed the following quality control standards: relative luciferase values were consistent throughout the entire experiment, Z-factor scores were greater than 0.6, untreated/vehicle controls behaved consistently on the plate. The calculation for synergy score is provided below.
Growth Inhibition (GI) was used as a measure of cell viability. The cell viability of vehicle was measured at the time of dosing (T0) and after seventy-two hours (T72). A GI reading of 0% represents no growth inhibition—cells treated with compound and T72 vehicle signals are matched. […] GI was calculated by applying the following test and equation: If T<V0:100*[1−(T−V0)/V0] […]

[2] = system: subjects with higher-risk MDS; conditions: Phase III study, administered subcutaneously; cited from earlier work
[3] = concentrations of 0.1 to 100 μM

Structure (SMILES): CO[C@H]1CC[C@H](N2C(=O)CNc3ncc(-c4ccc(C(C)(C)O)nc4)nc32)CC1 [Compound 1, 7-(6-(2-hydroxypropan-2-yl)pyridin-3-yl)-1-((1r,4r)-4-methoxycyclohexyl)-3,4-dihydropyrazino-[2,3-b]pyrazin-2(1H)-one]
Combination index (CI) at the ED50 (Ovcar-4): 0.99
Combination index (CI) at the ED50 (Ovcar-5): 0.92
Combination index (CI) at the ED50 (Caov-3): 1.08
Combination index (CI) at the ED50 (Ovcar-8): 0.99
Combination index (CI) at the ED50 (Ovcar-3): 1.23
inhibition of colony formation (SK-Hep-1 cells; 3 μM and higher): 100%
colony formation (SK-Hep-1 cells; 0.3-30 μM, 8-10 days): 0-45 % of control
anti-colony forming activity (SK-Hep-1 cells; [3]): dose-dependent and significant anti-colony forming activity
colony formation (HepG2 cells; 0.1 μM): 74 % of control
colony formation (HepG2 cells; 0.3 μM): 57 % of control
colony formation (HepG2 cells; 1 μM): 33 % of control
colony formation (HepG2 cells; 3 μM): 24 % of control
colony formation (HepG2 cells; 10 μM): 16 % of control
colony formation (HepG2 cells; 30 μM): 11 % of control
anti-colony forming activity (HepG2 cells; [3]): dose-dependent and significant anti-colony forming activity

GI50 [1]: 140 nM
Structure (SMILES): CCN1C(=O)CNc2ncc(-c3ccc(-c4nc[nH]n4)nc3C)nc21 [Compound 2, 1-ethyl-7-(2-methyl-6-(1H-1,2,4-triazol-3-yl)pyridin-3-yl)-3,4-dihydropyrazino[2,3-b]pyrazin-2(1H)-one]

Structure (SMILES): Cc1nc(-c2nnc[nH]2)ccc1-c1cnc2c(n1)N(CCC1CCOCC1)C(=O)CN2 [Compound 3, 7-(2-methyl-6-(4H-1,2,4-triazol-3-yl)pyridin-3-yl)-1-(2-(tetrahydro-2H-pyran-4-yl)ethyl)-3,4-dihydropyrazino[2,3-b]pyrazin-2(1H)-one]
Combination index (CI) at the ED50 (Ovcar-4): 0.61
Combination index (CI) at the ED50 (Ovcar-5): 0.76
Combination index (CI) at the ED50 (Caov-3): 0.92
Combination index (CI) at the ED50 (Ovcar-8): 0.81
Combination index (CI) at the ED50 (Ovcar-3): 0.55

Structure (SMILES): Nc1ncn([C@@H]2O[C@H](CO)[C@@H](O)[C@H]2O)c(=O)n1 [Compound 5-AZA, 4-amino-1-β-D-ribofuranosyl-1,3,5-triazin-2(1H)-one, reference compound]
survival and time to AML transformation or death [2]: significantly prolonged survival and time to AML transformation or death
colony formation (SK-Hep-1 cells; 10 μM, 8 days): 38 % of control
colony formation (HepG2 cells; at 1, 3 and 10 μM): 43-76 % of control
